According to patent US10988523B2, “Modified lipidated Relaxin B chain peptides and their therapeutic use” (Sanofi, priority 2018, dated 2021):
*1 amine or outer side, *2 acyl side, *3 side chain or, on linkers, in order; H or OH if unused. Where a SMILES comes first, the peptide text is derived from it. Side-chain parts run from the residue outwards. [ ]: non-standard residue; d: D form. The star is where a group is joined. PEG12 = NCCOCCOCCOCCOCCOCCOCCOCCOCCOCCOCCOCCOCCC(=O)O; γGlu = O=C(O)[C@H](CCC(=O)[*:2])N[*:1]; Stearoyl = CCCCCCCCCCCCCCCCCC(=O)*; Palmitoyl = CCCCCCCCCCCCCCCC(=O)*; αMeK = C[C@](N)(CCCCN)C(=O)O; αMeS = C[C@](N)(CO)C(=O)O; Nle = CCCC[C@H](N)C(=O)O; AEEA = NCCOCCOCC(=O)O; Aib = CC(C)(N)C(=O)O

What was measured:
[1] = Pharmacokinetic (PK) determination after i.v. or s.c. administration to rats; assay type: in vivo, Sprague Dawley rats; conditions: Sprague Dawley, Rat PK; for C0 / half-life: iv, 1 mg/kg i.v.; for C0: extrapolated plasma concentration at t=0, read-out: C0; for half-life / Cmax / Tmax / bioavailability: plasma; for half-life: read-out: T½ (converted); for Cmax / Tmax: sc, 3 mg/kg s.c.; for bioavailability: subcutaneous, 3 mg/kg s.c. vs 1 mg/kg i.v., dose-corrected AUC ratio
In short: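 Non-compartmental analysis of plasma LC/MS data (protein precipitation, BLQ taken as zero) gave T½, C0 (i.v.), Cmax/Tmax (s.c.) and F% from dose-corrected AUCs. Dosing: 3 mg/kg s.c. or 1 mg/kg i.v. in PBS to Sprague Dawley rats, purity- and salt-corrected.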

[2] = biological target: T1, RXFP1 (Homo sapiens, UniProt Q9HBX9); assay: OVCAR5 cAMP assay (HTRF), RXFP1 agonist activity; assay type: cell-based; conditions: for EC50: OVCAR5 cells, cAMP HTRF, read-out: EC50 (nM), OVCAR 5 cells (cAMP); for Emax: OVCAR-5, maximal cAMP relative to H2-relaxin maximum (100%), read-out: EMax, OVCAR 5 cells (cAMP)
T1 construct: OVCAR5 cells expressing endogenous RXFP1; endogenous in cells; host or cells: OVCAR5 cells
T1 sequence (Q9HBX9 1-757): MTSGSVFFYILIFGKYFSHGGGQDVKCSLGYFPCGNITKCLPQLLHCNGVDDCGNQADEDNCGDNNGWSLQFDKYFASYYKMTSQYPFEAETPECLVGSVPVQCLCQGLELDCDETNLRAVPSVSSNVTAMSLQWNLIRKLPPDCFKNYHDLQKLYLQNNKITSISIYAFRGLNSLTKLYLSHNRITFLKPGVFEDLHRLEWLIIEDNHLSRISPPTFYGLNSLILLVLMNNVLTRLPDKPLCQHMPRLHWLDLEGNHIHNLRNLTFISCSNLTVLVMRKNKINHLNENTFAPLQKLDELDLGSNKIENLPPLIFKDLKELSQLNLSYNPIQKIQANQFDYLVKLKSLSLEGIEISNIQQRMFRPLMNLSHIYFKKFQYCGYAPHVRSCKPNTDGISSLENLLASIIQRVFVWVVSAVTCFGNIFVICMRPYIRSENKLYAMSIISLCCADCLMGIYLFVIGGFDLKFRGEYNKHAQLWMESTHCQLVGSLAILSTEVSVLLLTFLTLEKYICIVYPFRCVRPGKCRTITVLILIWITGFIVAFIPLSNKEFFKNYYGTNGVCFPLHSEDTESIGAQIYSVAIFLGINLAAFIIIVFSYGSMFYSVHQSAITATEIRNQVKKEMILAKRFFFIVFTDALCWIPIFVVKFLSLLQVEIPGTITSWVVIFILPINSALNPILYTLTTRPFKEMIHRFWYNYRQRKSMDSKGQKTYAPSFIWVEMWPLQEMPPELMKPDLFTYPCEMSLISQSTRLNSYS
In short: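 cAMP accumulation readout: after 1 mM IBMX for 40 min, endogenous-RXFP1 OVCAR5 cells got rising peptide concentrations without FCS, 30 min, 37° C, then lysis with HTRF cAMP reagents. Nonlinear regression gave EC50; Emax expressed relative to H2-relaxin maximum, same occasion.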

SMILES	C0 [1] [nM]	half-life [1] [h]	Cmax [1] [nM]	Tmax [1] [h]	bioavailability [1] [%]	EC50 [2] [nM]	Emax [2] [%]
CCCCCCCCCCCCCCCCCC(=O)N[C@@H](CCC(=O)N[C@@H](CCC(=O)N[C@@H](CCC(=O)N[C@@H](CCC(=O)NCCCC[C@H](NC(=O)COCCOCCNC(=O)COCCOCCNC(=O)COCCOCCNC(=O)[C@H](CCCCNC(C)=O)NC(=O)[C@H](CCCCN)NC(=O)[C@H](CCCNC(=N)N)NC(=O)[C@](C)(CCCCN)NC(=O)[C@H](CO)NC(=O)[C@H](Cc1c[nH]c2ccccc12)NC(=O)[C@@H](NC(=O)[C@H](CO)NC(=O)[C@H](CCCC)NC(=O)CNC(=O)[C@H](CCC(=O)O)NC(=O)C(C)(C)NC(=O)C(C)(C)NC(=O)[C@@H](NC(=O)[C@H](CCCCNC(C)=O)NC(=O)[C@H](C)NC(=O)[C@H](CCCNC(=N)N)NC(=O)[C@@H](NC(=O)[C@H](CCCCN)NC(=O)[C@H](CCC(=O)O)NC(=O)[C@H](CCCNC(=N)N)NC(=O)CNC(=O)[C@H](CCC(=O)O)NC(=O)[C@H](CC(C)C)NC(C)=O)C(C)C)[C@@H](C)CC)[C@@H](C)O)C(N)=O)C(=O)O)C(=O)O)C(=O)O)C(=O)O [compound 16] (Ac-LEGREKVRAK(Ac)I[Aib][Aib]EG[Nle]STWS[αMeK]RKK(Ac)[AEEA][AEEA][AEEA]K([γGlu-γGlu-γGlu-γGlu-Stearoyl])-NH2)	2650	3.38	1880	8	53	0.02	87
CCCCCCCCCCCCCCCCCC(=O)N[C@@H](CCC(=O)NCCOCCOCC(=O)N[C@@H](CCC(=O)N[C@@H](CCC(=O)N[C@@H](CCC(=O)NCCOCCOCC(=O)NCCOCCOCC(=O)NCCCC[C@H](NC(=O)[C@H](CCCCN)NC(=O)[C@H](CCCCN)NC(=O)[C@H](CCCNC(=N)N)NC(=O)C(C)(C)NC(=O)[C@H](CO)NC(=O)[C@H](Cc1c[nH]c2ccccc12)NC(=O)[C@@H](NC(=O)[C@H](CO)NC(=O)[C@H](CCCC)NC(=O)CNC(=O)[C@H](CCC(=O)O)NC(=O)C(C)(C)NC(=O)C(C)(C)NC(=O)[C@@H](NC(=O)[C@H](CCCCNC(C)=O)NC(=O)[C@H](C)NC(=O)[C@H](CCCNC(=N)N)NC(=O)[C@@H](NC(=O)[C@H](CCCCN)NC(=O)[C@H](CCC(=O)O)NC(=O)[C@H](CCCNC(=N)N)NC(=O)CNC(=O)[C@H](CCC(=O)O)NC(=O)[C@H](CC(C)C)NC(C)=O)C(C)C)[C@@H](C)CC)[C@@H](C)O)C(N)=O)C(=O)O)C(=O)O)C(=O)O)C(=O)O [compound 102] (Ac-LEGREKVRAK(Ac)I[Aib][Aib]EG[Nle]STWS[Aib]RKKK([AEEA-AEEA-γGlu-γGlu-γGlu-AEEA-γGlu-Stearoyl])-NH2)	4250	1.16	1450	8	78	0.08	80
CCCCCCCCCCCCCCCC(=O)N[C@@H](CCC(=O)N[C@@H](CCC(=O)N[C@@H](CCC(=O)NCCCC[C@H](NC(=O)CCOCCOCCOCCOCCOCCOCCOCCOCCOCCOCCOCCOCCNC(=O)[C@H](CCCCN)NC(=O)[C@H](CCCNC(=N)N)NC(=O)C(C)(C)NC(=O)[C@H](CO)NC(=O)[C@H](Cc1c[nH]c2ccccc12)NC(=O)[C@@H](NC(=O)[C@H](CO)NC(=O)[C@H](CCCC)NC(=O)CNC(=O)[C@H](CCC(=O)O)NC(=O)C(C)(C)NC(=O)C(C)(C)NC(=O)[C@@H](NC(=O)[C@H](CCCCNC(C)=O)NC(=O)[C@H](C)NC(=O)[C@H](CCCNC(=N)N)NC(=O)[C@@H](NC(=O)[C@H](CCCCN)NC(=O)[C@H](CCC(=O)O)NC(=O)[C@H](CCCNC(=N)N)NC(=O)CNC(=O)[C@H](CCC(=O)O)NC(=O)[C@H](CC(C)C)NC(C)=O)C(C)C)[C@@H](C)CC)[C@@H](C)O)C(N)=O)C(=O)O)C(=O)O)C(=O)O [compound 38] (Ac-LEGREKVRAK(Ac)I[Aib][Aib]EG[Nle]STWS[Aib]RK[PEG12]K([γGlu-γGlu-γGlu-Palmitoyl])-NH2)	4370	7.16	2500	8	79	0.21	89
CCCCCCCCCCCCCCCCCC(=O)N[C@@H](CCC(=O)N[C@@H](CCC(=O)N[C@@H](CCC(=O)N[C@@H](CCC(=O)NCCCC[C@H](NC(=O)CCOCCOCCOCCOCCOCCOCCOCCOCCOCCOCCOCCOCCNC(=O)[C@H](CCCCNC(C)=O)NC(=O)[C@H](CCCCN)NC(=O)[C@H](CCCNC(=N)N)NC(=O)[C@H](CCCCN)NC(=O)[C@](C)(CO)NC(=O)[C@H](Cc1c[nH]c2ccccc12)NC(=O)[C@@H](NC(=O)[C@H](CO)NC(=O)[C@H](CCCC)NC(=O)CNC(=O)[C@H](CCC(=O)O)NC(=O)C(C)(C)NC(=O)C(C)(C)NC(=O)[C@@H](NC(=O)[C@H](CCCCNC(C)=O)NC(=O)[C@H](C)NC(=O)[C@H](CCCNC(=N)N)NC(=O)[C@@H](NC(=O)[C@H](CCCCN)NC(=O)[C@H](CCC(=O)O)NC(=O)[C@H](CCCNC(=N)N)NC(=O)CNC(=O)[C@H](CCC(=O)O)NC(=O)[C@H](CC(C)C)NC(C)=O)C(C)C)[C@@H](C)CC)[C@@H](C)O)C(N)=O)C(=O)O)C(=O)O)C(=O)O)C(=O)O [compound 39] (Ac-LEGREKVRAK(Ac)I[Aib][Aib]EG[Nle]STW[αMeS]KRKK(Ac)[PEG12]K([γGlu-γGlu-γGlu-γGlu-Stearoyl])-NH2)	4100	3.7	1570	8	62	0.03	91
CCCCCCCCCCCCCCCCCC(=O)N[C@@H](CCC(=O)NCCOCCOCC(=O)N[C@@H](CCC(=O)N[C@@H](CCC(=O)NCCOCCOCC(=O)NCCOCCOCC(=O)NCCCC[C@H](NC(=O)[C@H](CCCCN)NC(=O)[C@H](CCCNC(=N)N)NC(=O)C(C)(C)NC(=O)[C@H](CO)NC(=O)[C@H](Cc1c[nH]c2ccccc12)NC(=O)[C@@H](NC(=O)[C@H](CO)NC(=O)[C@H](CCCC)NC(=O)CNC(=O)[C@H](CCC(=O)O)NC(=O)C(C)(C)NC(=O)C(C)(C)NC(=O)[C@@H](NC(=O)[C@H](CCC(N)=O)NC(=O)[C@H](C)NC(=O)[C@H](CCCNC(=N)N)NC(=O)[C@@H](NC(=O)[C@H](CCCCN)NC(=O)[C@H](CCC(=O)O)NC(=O)[C@H](CCCNC(=N)N)NC(=O)CNC(=O)[C@H](CCC(=O)O)NC(=O)[C@H](CC(C)C)NC(C)=O)C(C)C)[C@@H](C)CC)[C@@H](C)O)C(N)=O)C(=O)O)C(=O)O)C(=O)O [compound 100] (Ac-LEGREKVRAQI[Aib][Aib]EG[Nle]STWS[Aib]RKK([AEEA-AEEA-γGlu-γGlu-AEEA-γGlu-Stearoyl])-NH2)	3100	2.8	2360	7	41	0.16	90
